Values after ≈ are worked out from the molar mass of the structure shown. Where two headings read alike, the source gives them in different places.
Legend:
BVDV-1 (strain PE515) = test: Anti-BVDV assay, virus-induced cytopathic effect in MDBK cells (MTS); assay type: cell-based, Bovine Viral Diarrhea Virus; conditions: Bovine viral diarrhea virus isolates and strains
Experimental: Madin-Darbey Bovine Kidney (MDBK) cells were maintained in Dulbecco's modified Eagle medium (DMEM) supplemented with BVDV-free 5% fetal calf serum (DMEME-FCS) at 37° C. in a humidified, 5% CO2 atmosphere. BVDV-1 (strain PE515) was used to assess the antiviral activity in MDBK cells. Vero cells were maintained in the same way as MDBK cells. Vero cells were infected with Coxsackie B3 virus (strain Nancy).
Ninety-six-well cell culture plates were seeded with MDBK cells in DMEM-FCS so that cells reached 24 hr later confluency. Then medium was removed and serial 5-fold dilutions of the test compounds were added in a total volume of 100 ul, after which the virus inoculum (100 ul) was added to each well. […] Uninfected cells and cells receiving virus without compound were included in each assay plate. After 5 days, medium was removed and 90 μl of DMEM-FCS and 10 ul of MTS/PMS solution (Promega) was added to each well. Following a 2 hr incubation period at 37° C. the optical density of the wells was read at 498 nm in a microplate reader.

[1] = Cytostatic effect on exponentially growing MDBK cells (MTS); assay type: cell-based, Bovine; conditions: bovine; Table 9; reduction of growth of exponentially growing MDBK cells by 50%; mean of 2-5 determinations
Experimental: Madin-Darbey Bovine Kidney (MDBK) cells were maintained in Dulbecco's modified Eagle medium (DMEM) supplemented with BVDV-free 5% fetal calf serum ([…]) at 37° C. in a humidified, 5% CO2 atmosphere. […] Vero cells were maintained in the same way as MDBK cells. […] The effect of the drugs on exponentially growing MDBK cells was assessed as follows. Cells were seeded at a density of 5000 cell/well in 96 well plates in MEM medium (Gibco) supplemented with 10% fetal calf serum, 2 mM L-glutamine (Life Technologies) and bicarbonate (Life Technologies). […] Cultures were then again further incubated for 3 days after which the effect on cell growth was quantified by means of the MTS method (Promega).

[2] = Table 9, reduction of virus induced cytopathic effect in MDBK cells by 50%, BVDV strain PE515, mean of 2-5 determinations, read-out: EC50

| SMILES | EC50 (BVDV-1 (strain PE515); [2]) | CC50 at 3 days [1] | EC50 (BVDV-1 (strain PE515); MDBK) |
| --- | --- | --- | --- |
| Fc1ccc(Cn2ccc3nc(-c4cc(F)ccc4F)nc-3c2)c(F)c1 [GPC-13, 2-(2,5-Difluorophenyl)-5-[(2,4-difluorophenyl)methyl]-5H-imidazo[4,5-c]pyridine] | 0.067 µg/mL (≈ 0.188 µM) | > 100 µg/mL | – |
| Fc1cccc(F)c1-c1nc2ccn(Cc3ccccc3)cc-2n1 [GPJN-1, 5-Benzyl-2-(2,6-difluorophenyl)-5H-imidazo[4,5-c]pyridine] | 0.24 µg/mL (≈ 0.747 µM) | > 83.3 µg/mL | – |
| Fc1cccc(F)c1Cn1ccc2nc(-c3ccccc3)nc-2c1 [GPJN-3, 5-[(2,6-Difluorophenyl)methyl]-2-phenyl-5H-imidazo[4,5-c]pyridine] | 0.06 µg/mL (≈ 0.187 µM) | 60 µg/mL (≈ 187 µM) | – |
| c1ccc(Cn2ccc3nc(-c4ccccc4)nc-3c2)cc1 [GPJN-4, 5-Benzyl-2-phenyl-5H-imidazo[4,5-c]pyridine] | 0.04 µg/mL (≈ 0.14 µM) | 46 µg/mL (≈ 161 µM) | – |
| Clc1ccccc1Cn1ccc2nc(-c3ccccc3)nc-2c1 [GPJN-7, 5-[(2-Chlorophenyl)methyl]-2-phenyl-5H-imidazo[4,5-c]pyridine] | 0.042 µg/mL (≈ 0.131 µM) | 22 µg/mL (≈ 68.8 µM) | – |
| Clc1cccc(Cn2ccc3nc(-c4ccccc4)nc-3c2)c1 [GPJN-8, 5-[(3-Chlorophenyl)methyl]-2-phenyl-5H-imidazo[4,5-c]pyridine] | 0.086 µg/mL (≈ 0.269 µM) | 51 µg/mL (≈ 159 µM) | – |
| Cl.Clc1ccc(Cn2ccc3nc(-c4ccccc4)nc-3c2)cc1 [GPJN-9 xHCl, 5-[(4-Chlorophenyl)methyl]-2-phenyl-5H-imidazo[4,5-c]pyridine hydrochloride] | 0.016 µg/mL | – | – |
| Clc1ccc(Cn2ccc3nc(-c4ccccc4)nc-3c2)cc1 [GPJN-9, 5-[(4-Chlorophenyl)methyl]-2-phenyl-5H-imidazo[4,5-c]pyridine] | 0.049 µg/mL (≈ 0.153 µM) | – | – |
| COc1ccccc1Cn1ccc2nc(-c3ccccc3)nc-2c1 [GPJN-11, 5-[(2-Methoxyphenyl)methyl]-2-phenyl-5H-imidazo[4,5-c]pyridine] | 0.032 µg/mL (≈ 0.101 µM) | 36 µg/mL (≈ 114 µM) | – |
| COc1cccc(Cn2ccc3nc(-c4ccccc4)nc-3c2)c1 [GPJN-12, 5-[(3-Methoxyphenyl)methyl]-2-phenyl-5H-imidazo[4,5-c]pyridine] | 0.059 µg/mL (≈ 0.187 µM) | 56 µg/mL (≈ 178 µM) | – |
| COc1ccc(Cn2ccc3nc(-c4ccccc4)nc-3c2)cc1 [GPJN-13, 5-[(4-Methoxyphenyl)methyl]-2-phenyl-5H-imidazo[4,5-c]pyridine] | 0.043 µg/mL (≈ 0.136 µM) | 45 µg/mL (≈ 143 µM) | – |
| c1ccc(CCCn2ccc3nc(-c4ccccc4)nc-3c2)cc1 [GPJN-14, 2-Phenyl-5-(3-phenylpropyl)-5H-imidazo[4,5-c]pyridine] | 0.07 µg/mL (≈ 0.223 µM) | 40 µg/mL (≈ 128 µM) | – |
| Cc1ccc(Cn2ccc3nc(-c4ccccc4)nc-3c2)cc1 [GPJN-15, 5-[(4-Methylphenyl)methyl]-2-phenyl-5H-imidazo[4,5-c]pyridine] | 0.009 µg/mL (≈ 0.0301 µM) | 29 µg/mL (≈ 96.9 µM) | – |
| Fc1ccccc1Cn1ccc2nc(-c3ccccc3)nc-2c1 [GPJN-17, 5-[(2-Fluorophenyl)methyl]-2-phenyl-5H-imidazo[4,5-c]pyridine] | 0.097 µg/mL (≈ 0.32 µM) | 50 µg/mL (≈ 165 µM) | – |
| Fc1cccc(Cn2ccc3nc(-c4ccccc4)nc-3c2)c1 [GPJN-18, 5-[(3-Fluorophenyl)methyl]-2-phenyl-5H-imidazo[4,5-c]pyridine] | 0.019 µg/mL (≈ 0.0626 µM) | 55 µg/mL (≈ 181 µM) | – |
| Fc1ccc(Cn2ccc3nc(-c4ccccc4)nc-3c2)cc1 [GPJN-19, 5-[(4-Fluorophenyl)methyl]-2-phenyl-5H-imidazo[4,5-c]pyridine] | 0.013 µg/mL (≈ 0.0429 µM) | 40 µg/mL (≈ 132 µM) | – |
| Cc1ccccc1Cn1ccc2nc(-c3ccccc3)nc-2c1 [GPJN-20, 5-[(2-Methylphenyl)methyl]-2-phenyl-5H-imidazo[4,5-c]pyridine] | 0.165 µg/mL (≈ 0.551 µM) | 28 µg/mL (≈ 93.5 µM) | – |
| Cc1cccc(Cn2ccc3nc(-c4ccccc4)nc-3c2)c1 [GPJN-21, 5-[(3-Methylphenyl)methyl]-2-phenyl-5H-imidazo[4,5-c]pyridine] | 0.022 µg/mL (≈ 0.0735 µM) | 22 µg/mL (≈ 73.5 µM) | – |
| Brc1ccc(Cn2ccc3nc(-c4ccccc4)nc-3c2)cc1 [GPJN-22, 5-[(4-Bromophenyl)methyl]-2-phenyl-5H-imidazo[4,5-c]pyridine] | 0.029 µg/mL (≈ 0.0796 µM) | 13 µg/mL (≈ 35.7 µM) | – |
| N#Cc1ccc(Cn2ccc3nc(-c4ccccc4)nc-3c2)cc1 [GPJN-23, 4-[(2-Phenyl-5H-imidazo[4,5-c]pyridin-5-yl)methyl]-benzonitrile] | 0.014 µg/mL (≈ 0.0451 µM) | 46 µg/mL (≈ 148 µM) | – |

| SMILES | EC50 (BVDV-1 (strain PE515); [2]) | CC50 at 3 days [1] | EC50 (BVDV-1 (strain PE515); MDBK) |
| --- | --- | --- | --- |
| FC(F)(F)c1ccc(Cn2ccc3nc(-c4ccccc4)nc-3c2)cc1 [GPJN-24, 2-Phenyl-5-[[4-(trifluoromethyl)phenyl]methyl]-5H-imidazo[4,5-c]pyridine] | 0.04 µg/mL (≈ 0.113 µM) | 21 µg/mL (≈ 59.4 µM) | – |
| Clc1ccc(Cn2ccc3nc(-c4ccccc4)nc-3c2)s1 [GPJN-25, 5-[(5-Chloro-2-thienyl)methyl]-2-phenyl-5H-imidazo[4,5-c]pyridine] | 0.009 µg/mL (≈ 0.0276 µM) | 36 µg/mL (≈ 110 µM) | – |
| c1ccc(-c2nc3ccn(Cc4ccc5ccccc5c4)cc-3n2)cc1 [GPJN-26, 5-(2-Naphthalenylmethyl)-2-phenyl-5H-imidazo[4,5-c]pyridine] | 0.041 µg/mL (≈ 0.122 µM) | > 100 µg/mL | – |
| c1ccc(CCCCn2ccc3nc(-c4ccccc4)nc-3c2)cc1 [GPJN-27, 2-Phenyl-5-(4-phenylbutyl)-5H-imidazo[4,5-c]pyridine] | 0.945 µg/mL (≈ 2.89 µM) | > 46 µg/mL | – |
| CC(C)=CCn1ccc2nc(-c3ccccc3)nc-2c1 [GPJN-28, 5-(3-Methyl-2-butenyl)-2-phenyl-5H-imidazo[4,5-c]pyridine] | 0.325 µg/mL (≈ 1.23 µM) | > 75 µg/mL | – |
| c1ccc(-c2nc3ccn(Cc4ccncc4)cc-3n2)cc1 [GPJN-31, 2-Phenyl-5-(4-pyridinylmethyl)-5H-imidazo[4,5-c]pyridine] | 0.455 µg/mL (≈ 1.59 µM) | > 100 µg/mL | – |
| CC(c1ccccc1)n1ccc2nc(-c3ccccc3)nc-2c1 (stereo not drawn) [GPJN-33, 2-Phenyl-5-(1-phenylethyl)-5H-imidazo[4,5-c]pyridine] | 0.2 µg/mL (≈ 0.668 µM) | 70 µg/mL (≈ 234 µM) | – |
| c1ccc(-c2nc3ccn(Cc4ccccn4)cc-3n2)cc1 [GPJN-34, 2-Phenyl-5-(2-pyridinylmethyl)-5H-imidazo[4,5-c]pyridine] | 0.865 µg/mL (≈ 3.02 µM) | > 100 µg/mL | – |
| c1ccc(-c2nc3ccn(Cc4cccnc4)cc-3n2)cc1 [GPJN-35, 2-Phenyl-5-(3-pyridinylmethyl)-5H-imidazo[4,5-c]pyridine] | 0.365 µg/mL (≈ 1.27 µM) | > 100 µg/mL | – |
| c1ccc(-c2nc3ccn(CC4CCCCC4)cc-3n2)cc1 [GPJN-37, 5-(Cyclohexylmethyl)-2-phenyl-5H-imidazo[4,5-c]pyridine] | 0.161 µg/mL (≈ 0.553 µM) | 22 µg/mL (≈ 75.5 µM) | – |
| CC(C)CCn1ccc2nc(-c3ccccc3)nc-2c1 [GPJN-38, 5-(3-Methylbutyl)-2-phenyl-5H-imidazo[4,5-c]pyridine] | 0.235 µg/mL (≈ 0.886 µM) | 50 µg/mL (≈ 188 µM) | – |
| Fc1ccc(Cn2ccc3nc(-c4c(F)cccc4F)nc-3c2)cc1 [GPJN-39, 2-(2,6-Difluorophenyl)-5-[(4-fluorophenyl)methyl]-5H-imidazo[4,5-c]pyridine] | 0.245 µg/mL (≈ 0.722 µM) | > 100 µg/mL | – |
| Fc1cc(F)c(Cn2ccc3nc(-c4c(F)cccc4F)nc-3c2)c(F)c1 [GPJN-41, 2-(2,6-Difluorophenyl)-5-[(2,4,6-trifluorophenyl)methyl]-5H-imidazo[4,5-c]pyridine] | 0.58 µg/mL (≈ 1.55 µM) | > 100 µg/mL | – |
| CCc1nc2ccn(Cc3ccc(Br)cc3)cc-2n1 [GPJN-48, 5-[(4-Bromophenyl)methyl]-2-ethyl-5H-imidazo[4,5-c]pyridine] | 0.351 µg/mL (≈ 1.11 µM) | > 100 µg/mL | – |
| Brc1ccc(Cn2ccc3nc(-c4ccncc4)nc-3c2)cc1 [GPJN-49, 5-[(4-Bromophenyl)methyl]-2-(4-pyridinyl)-5H-imidazo[4,5-c]pyridine] | 0.18 µg/mL (≈ 0.493 µM) | 62 µg/mL (≈ 170 µM) | – |
| Brc1ccc(Cn2ccc3nc(-c4cccs4)nc-3c2)cc1 [GPJN-53, 5-[(4-Bromophenyl)methyl]-2-(2-thienyl)-5H-imidazo[4,5-c]pyridine] | 0.033 µg/mL (≈ 0.0891 µM) | 66 µg/mL (≈ 178 µM) | – |
| Clc1ccccc1-c1nc2ccn(Cc3ccc(Br)cc3)cc-2n1 [GPJN-54, 5-[(4-Bromophenyl)methyl]-2-(2-chlorophenyl)-5H-imidazo[4,5-c]pyridine] | 0.1 µg/mL (≈ 0.251 µM) | 35 µg/mL (≈ 87.8 µM) | – |
| Clc1cccc(-c2nc3ccn(Cc4ccc(Br)cc4)cc-3n2)c1 [GPJN-55, 5-[(4-Bromophenyl)methyl]-2-(3-chlorophenyl)-5H-imidazo[4,5-c]pyridine] | 0.06 µg/mL (≈ 0.15 µM) | > 100 µg/mL | – |
| Brc1ccc(Cn2ccc3nc(-c4ccc5ccccc5c4)nc-3c2)cc1 [GPJN-63, 5-[(4-Bromophenyl)methyl]-2-(2-naphthalenyl)-5H-imidazo[4,5-c]pyridine] | 0.0042 µg/mL (≈ 0.0101 µM) | 4.3 µg/mL (≈ 10.4 µM) | – |
| Brc1ccc(Cn2ccc3nc(-c4cccc(Br)c4)nc-3c2)cc1 [GPJN-65, 2-(3-Bromophenyl)-5-[(4-bromophenyl)methyl]-5H-imidazo[4,5-c]pyridine] | – | > 100 µg/mL | 0.01 µg/mL (≈ 0.0226 µM) |
